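These data come from cells grown in 96-well plates and exposed to compound for 48 hours at five concentrations. The concentration for 50% growth inhibition is given as GI50.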 Active and inactive are the calls of the source. No stated cut-off is given here; in the data, active = GI50 up to about 1.1 µM and inactive = higher.
Tests used:
Assay in all cases: NCI tumour cell line growth inhibition, 48 h
[1] = system: UO-31
[2] = system: A549
[3] = system: 786-0
[4] = system: SNB-19
[5] = system: COLO 205
[6] = system: HOP-62
[7] = system: SK-MEL-28
[8] = system: SW-620
[9] = system: DMS-273
[10] = system: NCI-H522
[11] = system: SK-MEL-2
[12] = system: IGROV-1
[13] = system: SN12C
[14] = system: CCRF-CEM
[15] = system: SF-295
[16] = system: A498
[17] = system: KM-20L2
[18] = system: ACHN
[19] = system: SK-MEL-5
[20] = system: K562
[21] = system: OVCAR-8
[22] = system: U-251
[23] = system: HCT-116
[24] = system: LXFL 529
[25] = system: SNB-78
[26] = system: HCT-15
[27] = system: OVCAR-3
[28] = system: RXF 393
[29] = system: OVCAR-4
[30] = system: DLD-1
[31] = system: UACC-62
[32] = system: SR
[33] = system: NCI-H460
[34] = system: RPMI-8226
[35] = system: TK-10
[36] = system: M19-MEL
[37] = system: NCI-H23
[38] = system: CAKI-1
[39] = system: LOX IMVI
[40] = system: MOLT-4
[41] = system: M14
[42] = system: SF-268
[43] = system: SK-OV-3
[44] = system: DMS-114
[45] = system: EKVX
[46] = system: XF498
[47] = system: HCC 2998
[48] = system: HL-60
[49] = system: KM12
[50] = system: SNB-75
[51] = system: UACC-257
[52] = system: NCI-H226
[53] = system: HOP-92
[54] = system: OVCAR-5
[55] = system: SF-539
[56] = system: HT-29

Measured: GI50

CC1(C)CCOC(Sc2ccccc2)C1 (stereo not drawn)
inactive: [1] 80.9 µM | [2] 24.3 µM | [3] > 100 µM | [4] > 100 µM | [5] 52.2 µM | [6] > 100 µM | [7] > 100 µM | [8] > 100 µM | [9] 28.2 µM | [10] 18.8 µM | [11] 30.3 µM | [12] > 100 µM | [13] > 100 µM | [14] 32.4 µM | [15] 66.2 µM | [16] 67.3 µM | [17] 47.4 µM | [18] 63.7 µM | [19] 15 µM | [20] 21.9 µM | [21] > 100 µM | [22] 18.7 µM | [23] 60.4 µM | [24] > 100 µM | [25] > 100 µM | [27] 87.1 µM | [28] 32.1 µM | [29] 52.8 µM | [30] > 100 µM | [31] 38.5 µM | [32] 39.6 µM | [33] 84.9 µM | [34] 18.3 µM | [35] > 100 µM | [36] 30.3 µM | [37] 10.8 µM | [38] 96.8 µM | [39] 91.4 µM | [40] 23.2 µM | [41] 53.2 µM | [42] > 100 µM | [43] > 100 µM | [44] 21.3 µM | [45] > 100 µM | [46] > 100 µM | [47] > 100 µM | [48] 10.5 µM | [49] 76.6 µM | [50] 53.2 µM | [51] 35.2 µM
50.6 µM: [26]

CCCO/N=[N+](\[O-])N(CC)CC
> 100 µM: [26]
inactive: [1] > 100 µM | [2] > 100 µM | [4] > 100 µM | [6] > 100 µM | [7] > 100 µM | [8] > 100 µM | [9] > 100 µM | [10] > 100 µM | [11] > 100 µM | [12] > 100 µM | [13] > 100 µM | [14] > 100 µM | [15] > 100 µM | [16] > 100 µM | [17] > 100 µM | [18] > 100 µM | [19] > 100 µM | [20] > 100 µM | [21] > 100 µM | [22] > 100 µM | [23] > 100 µM | [24] > 100 µM | [25] > 100 µM | [27] > 100 µM | [28] > 100 µM | [52] > 100 µM | [31] > 100 µM | [32] > 100 µM | [33] > 100 µM | [35] > 100 µM | [53] > 100 µM | [37] > 100 µM | [39] > 100 µM | [40] > 100 µM | [41] > 100 µM | [42] > 100 µM | [43] > 100 µM | [45] > 100 µM | [46] > 100 µM | [54] > 100 µM | [55] > 100 µM | [47] > 100 µM | [48] > 100 µM | [49] > 100 µM | [56] > 100 µM | [51] > 100 µM

From ChEMBL document CHEMBL1201862, “PubChem BioAssay data set” (2004)
